Data taken from ChEMBL document CHEMBL1142463 (Bioorg Med Chem Lett, 2008).

Legend:
Phospholipase A2 group V [1] = target: T1, Phospholipase A2 group V (Mus musculus, UniProt P97391); test: Inhibition of mouse sPLA2 group 5
T1 sequence (P97391 whole entry): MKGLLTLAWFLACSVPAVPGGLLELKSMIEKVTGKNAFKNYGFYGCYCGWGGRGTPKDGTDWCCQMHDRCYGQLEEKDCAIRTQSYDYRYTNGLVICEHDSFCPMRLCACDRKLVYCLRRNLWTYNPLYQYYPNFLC

[2] = target: T2, Phospholipase A2, membrane associated (Mus musculus, UniProt P31482); test: Inhibition of mouse sPLA2 group 2A
T2 sequence (P31482 whole entry): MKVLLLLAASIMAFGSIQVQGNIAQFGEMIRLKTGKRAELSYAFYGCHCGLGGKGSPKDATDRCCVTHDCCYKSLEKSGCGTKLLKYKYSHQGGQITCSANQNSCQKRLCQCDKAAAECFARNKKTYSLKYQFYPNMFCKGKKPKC

[3] = target: T3, Group 10 secretory phospholipase A2 (Mus musculus, UniProt Q9QXX3); test: Inhibition of mouse sPLA2 group 10
T3 sequence (Q9QXX3 whole entry): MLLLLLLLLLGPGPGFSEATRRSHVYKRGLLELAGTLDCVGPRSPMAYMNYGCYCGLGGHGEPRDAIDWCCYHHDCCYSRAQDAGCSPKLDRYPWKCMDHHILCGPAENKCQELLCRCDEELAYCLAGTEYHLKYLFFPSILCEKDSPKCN

[4] = target: T4, Phospholipase A2, membrane associated (Homo sapiens, UniProt P14555); test: Inhibition of human sPLA2 group 2A
T4 sequence (P14555 whole entry): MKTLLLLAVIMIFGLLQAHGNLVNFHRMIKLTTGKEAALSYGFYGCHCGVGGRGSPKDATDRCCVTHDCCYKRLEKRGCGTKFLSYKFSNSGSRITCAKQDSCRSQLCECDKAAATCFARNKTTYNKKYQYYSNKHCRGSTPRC

Phospholipase A2 group V [5] = target: T5, Phospholipase A2 group V (Homo sapiens, UniProt P39877); test: Inhibition of human sPLA2 group 5
T5 sequence (P39877 whole entry): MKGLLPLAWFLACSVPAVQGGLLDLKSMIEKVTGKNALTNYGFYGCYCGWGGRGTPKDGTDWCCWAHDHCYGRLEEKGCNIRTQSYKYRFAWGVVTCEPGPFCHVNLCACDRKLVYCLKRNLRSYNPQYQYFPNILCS

[6] = target: T6, Group 10 secretory phospholipase A2 (Homo sapiens, UniProt O15496); test: Inhibition of human sPLA2 group 10
T6 sequence (O15496 whole entry): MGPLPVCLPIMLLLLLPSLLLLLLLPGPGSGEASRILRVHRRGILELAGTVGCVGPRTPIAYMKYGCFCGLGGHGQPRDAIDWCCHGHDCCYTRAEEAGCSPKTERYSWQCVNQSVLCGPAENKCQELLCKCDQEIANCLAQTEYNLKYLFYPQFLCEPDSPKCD

[7] = target: T7, Phospholipase A2, membrane associated (Rattus norvegicus, UniProt P14423); test: Inhibition of rat sPLA2 group 2A
T7 sequence (P14423 whole entry): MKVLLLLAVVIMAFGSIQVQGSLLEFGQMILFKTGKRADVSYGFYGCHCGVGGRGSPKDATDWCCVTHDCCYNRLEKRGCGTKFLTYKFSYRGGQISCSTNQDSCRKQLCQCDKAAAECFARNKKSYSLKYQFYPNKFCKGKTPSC

[8] = target: Phospholipase A2, membrane associated (Oryctolagus cuniculus, UniProt P14422); test: Inhibition of rabbit sPLA2 group 2A
Phospholipase A2, membrane associated (Oryctolagus cuniculus, UniProt P14422), sequence (P14422 whole entry): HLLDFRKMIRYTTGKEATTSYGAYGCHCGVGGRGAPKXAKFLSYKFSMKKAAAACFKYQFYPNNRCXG

Structure (SMILES) | IC50 (Phospholipase A2 group V [1]) [nM] | IC50 [2] [nM] | IC50 [3] [nM] | IC50 [4] [nM] | IC50 (Phospholipase A2 group V [5]) [nM] | IC50 [6] [nM] | IC50 [7] [nM] | IC50 [8] [nM]
CCCCCCCCCCCC(=O)c1c(O)c(C(=O)CCCCCCCCCCC)c(O)c(C2CC(c3ccc(O)cc3)Oc3cc(O)ccc32)c1O (stereo not drawn) | 520 | 30 | > 1600 |  |  |  |  | 
CC(=O)c1c(O)c(C)c(O)c(C(C)=O)c1O | > 1600 | > 1600 | > 1600 | > 1600 | > 1600 | > 1600 |  | 
CCCCCCCCCCCCc1c(O)cc(O)c(C(=O)CCCCCCCCCCC)c1O | > 1600 | > 1600 | > 1600 | > 1600 | > 1600 | > 1600 |  | 
CCCCCCCCCCCCc1c(O)c(C(C)=O)c(O)c(C(C)=O)c1O | > 1600 | > 1600 | > 1600 | > 1600 | > 1600 | > 1600 |  | 
CCCCCCCCCCCC(=O)c1cc(C)cc(C(=O)CCCCCCCCCCC)c1O | > 1600 | > 1600 | > 1600 | > 1600 | > 1600 | > 1600 |  | 
CCCCCCCCCCCC(=O)c1c(O)c(C)c(O)c(C(C)=O)c1O | > 1600 | > 1600 | > 1600 | > 1600 | > 1600 | > 1600 |  | 
CCCCCCCCCCCC(=O)c1c(O)c(C)c(O)c(C(=O)CCCCCCCCCCC)c1O | 1600 | 60 | > 1600 | 690 | 530 | > 1600 | 80 | 
CCCCCCCCCCCC(=O)c1cc(C(=O)CCCCCCCCCCC)c(O)cc1O | > 1600 | > 1600 | > 1600 | > 1600 | > 1600 | > 1600 |  | 
Oc1ccc(C2CCc3ccc(O)cc3O2)cc1 (stereo not drawn) |  | > 3300 |  | > 3300 |  |  | > 3300 | 
Cc1c(O)c(C(=O)Cc2ccccc2)c(O)c(C(=O)Cc2ccccc2)c1O | > 1600 | > 1600 | > 1600 | > 1600 | > 1600 | > 1600 |  | 
CCCCCCCCCCCC(=O)c1c(O)cc(O)c(C(=O)CCCCCCCCCCC)c1O [DIDODECANOYLPHLOROGLUCINOL] | 1600 | 110 | > 1600 | 1600 | 1600 | > 1600 | 90 | 10
